Laboratory results: patent US20040197824A1, “Method for selective radioactive marking of peptides” (priority 2002, published 2004)

What was measured:
PTH1-receptor = PTH1-receptor (Homo sapiens, UniProt Q03431); test: competitive binding study at PTH1-receptor; conditions: radio ligand concentration of 1 nM; FIG. 15
Y-receptor Y1 = target: T1, Y-receptor Y1 (Homo sapiens, UniProt P25929); test: competitive binding studies at the Y1 receptor; conditions: FIG. 9
T1 sequence (P25929 1-384): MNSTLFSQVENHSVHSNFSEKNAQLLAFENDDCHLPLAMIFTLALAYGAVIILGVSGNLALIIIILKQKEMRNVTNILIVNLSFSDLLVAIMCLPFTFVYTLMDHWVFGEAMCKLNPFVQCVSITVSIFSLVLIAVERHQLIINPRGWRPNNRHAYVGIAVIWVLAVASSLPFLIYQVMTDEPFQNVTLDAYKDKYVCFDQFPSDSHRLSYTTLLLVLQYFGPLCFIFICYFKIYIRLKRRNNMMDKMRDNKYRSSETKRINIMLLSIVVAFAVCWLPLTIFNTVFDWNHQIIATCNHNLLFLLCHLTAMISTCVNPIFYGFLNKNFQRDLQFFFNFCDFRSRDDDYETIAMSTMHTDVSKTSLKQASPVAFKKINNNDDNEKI
Experimental: (§1) The performance of the binding assays was performed as previously described.^(5)

Y-receptor Y5 = target: T2, Y-receptor Y5 (Homo sapiens, UniProt Q15761); test: competitive binding studies at the Y5 receptor; conditions: FIG. 9
T2 sequence (Q15761 1-445): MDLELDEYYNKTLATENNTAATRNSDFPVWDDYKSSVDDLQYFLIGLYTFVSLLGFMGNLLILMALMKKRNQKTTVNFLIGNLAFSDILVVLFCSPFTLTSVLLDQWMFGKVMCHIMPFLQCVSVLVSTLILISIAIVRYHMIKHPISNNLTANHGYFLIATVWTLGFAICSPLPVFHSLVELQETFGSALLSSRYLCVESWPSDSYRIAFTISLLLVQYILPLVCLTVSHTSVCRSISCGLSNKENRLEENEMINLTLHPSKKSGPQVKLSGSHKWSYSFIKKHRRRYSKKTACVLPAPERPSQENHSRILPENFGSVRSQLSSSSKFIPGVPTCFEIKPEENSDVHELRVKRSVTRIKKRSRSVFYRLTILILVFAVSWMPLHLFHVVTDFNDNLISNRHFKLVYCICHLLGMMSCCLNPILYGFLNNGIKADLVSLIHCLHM
Experimental: as §1

Y-receptor Y2 = target: T3, Y-receptor Y2 (Homo sapiens, UniProt P49146); test: competitive binding studies at the Y2 receptor; conditions: FIG. 9
T3 sequence (P49146 1-381): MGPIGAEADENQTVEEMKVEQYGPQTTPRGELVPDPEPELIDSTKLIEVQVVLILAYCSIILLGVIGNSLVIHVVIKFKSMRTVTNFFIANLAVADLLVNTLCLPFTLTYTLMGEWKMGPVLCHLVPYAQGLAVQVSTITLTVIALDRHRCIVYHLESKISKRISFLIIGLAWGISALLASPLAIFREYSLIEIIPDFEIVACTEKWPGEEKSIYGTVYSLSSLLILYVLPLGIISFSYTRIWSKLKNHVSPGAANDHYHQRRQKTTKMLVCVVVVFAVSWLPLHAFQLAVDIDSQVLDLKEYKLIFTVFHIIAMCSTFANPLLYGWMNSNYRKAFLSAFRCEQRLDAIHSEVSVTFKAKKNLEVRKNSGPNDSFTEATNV
Experimental: as §1

PTH1-receptor, sequence (Q03431 27-593): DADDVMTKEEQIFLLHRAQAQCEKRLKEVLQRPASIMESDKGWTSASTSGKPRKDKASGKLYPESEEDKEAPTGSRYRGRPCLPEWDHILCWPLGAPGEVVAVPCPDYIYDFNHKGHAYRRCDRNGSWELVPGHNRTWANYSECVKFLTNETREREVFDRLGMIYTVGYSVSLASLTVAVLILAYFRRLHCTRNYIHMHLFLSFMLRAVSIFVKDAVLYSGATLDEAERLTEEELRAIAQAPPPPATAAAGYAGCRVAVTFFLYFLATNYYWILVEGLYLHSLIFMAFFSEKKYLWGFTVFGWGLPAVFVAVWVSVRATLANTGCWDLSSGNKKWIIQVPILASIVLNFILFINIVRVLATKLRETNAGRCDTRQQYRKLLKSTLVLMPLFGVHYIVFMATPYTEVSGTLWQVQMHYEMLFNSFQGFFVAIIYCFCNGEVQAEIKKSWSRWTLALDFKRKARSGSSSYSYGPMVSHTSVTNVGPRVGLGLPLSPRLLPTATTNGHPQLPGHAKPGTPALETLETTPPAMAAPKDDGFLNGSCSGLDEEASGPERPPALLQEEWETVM

Compound | behavior in competitive binding relative to non-marked PTH (1-34)-amide (PTH1-receptor) | behavior in competitive binding in comparison to commercially available ^3H-NPY (Y-receptor Y1) | behavior in competitive binding in comparison to commercially available ^3H-NPY (Y-receptor Y5) | behavior in competitive binding in comparison to commercially available ^3H-NPY (Y-receptor Y2)
[3H]CC([3H])C(=O)NCCCC[C@H](NC(=O)CNC(=O)[C@H](CC(C)C)NC(=O)[C@H](CC(N)=O)NC(=O)[C@H](Cc1c[nH]cn1)NC(=O)[C@H](CCSC)NC(=O)[C@H](CC(C)C)NC(=O)[C@H](CCC(N)=O)NC(=O)[C@@H](NC(=O)[C@H](CCC(=O)O)NC(=O)[C@H](CO)NC(=O)[C@@H](NC(=O)[C@@H](N)CO)C(C)C)[C@@H](C)CC)C(=O)N[C@@H](Cc1c[nH]cn1)C(=O)N[C@@H](CC(C)C)C(=O)N[C@@H](CC(N)=O)C(=O)N[C@@H](CO)C(=O)N[C@@H](CCSC)C(=O)N[C@@H](CCC(=O)O)C(=O)N[C@@H](CCCNC(=N)N)C(=O)N[C@H](C(=O)N[C@@H](CCC(=O)O)C(=O)N[C@@H](Cc1c[nH]c2ccccc12)C(=O)N[C@@H](CC(C)C)C(=O)N[C@@H](CCCNC(=N)N)C(=O)N[C@@H](CCCCN)C(=O)N[C@@H](CCCCN)C(=O)N[C@@H](CC(C)C)C(=O)N[C@@H](CCC(N)=O)C(=O)N[C@@H](CC(=O)O)C(=O)N[C@H](C(=O)N[C@@H](Cc1c[nH]cn1)C(=O)N[C@@H](CC(N)=O)C(=O)N[C@@H](Cc1ccccc1)C(N)=O)C(C)C)C(C)C (stereo partly shown) [PTH (1-34)-amide marked at position 13, ^3H-proprionyl-Lys^13-PTH(1-34)-amide] | nearly identical behavior |  |  | 
^3H-proprionyl-Lys^4-NPY [^3H-NPY] |  | identical behavior | identical behavior | identical behavior
